The values that follow are results of earlier work, collected in patent US20050159419A1, “Compositions of a cyclooxygenase-2 selective inhibitor and a central nervous system stimulant for the treatment of central nervous system damage” (Pharmacia Corporation, priority 2003, published 2005).

The test system of one data set is human stroke victims. Particulars: coupled with physical therapy, compared to stroke victims receiving only physical therapy.

As for `CC(N)Cc1ccccc1` (centres unmarked) [amphetamine], the alternative circuit activation result in the data set with infarcted rats is on record as “promoted alternative circuit activation”. Also, the motor recovery entry in the data set on human stroke victims is “accelerated motor recovery”.
